Assay results published in article PMC6445168, “Design, synthesis and antimalarial activity of novel bis{N-[(pyrrolo[1,2-a]quinoxalin-4-yl)benzyl]-3-aminopropyl}amine derivatives” (Journal of Enzyme Inhibition and Medicinal Chemistry, 2017).
Where a name gives a salt, the structure may show the parent alone. Read-outs that look alike come from different tables or passages of the source.

Columns and labels:
[1] = test system: P. falciparum CQ-resistant strain W2; test: In vitro antiplasmodial activity, SYBR Green I fluorescence-based method, W2 strain; format: cell-based, Plasmodium falciparum; details: for IC50: Plasmodium falciparum, chloroquine-resistant strain W2, 48 h incubation, read-out: P. falciparum strains IC50 values, W2; for Selectivity Index HepG2/W2: ratio CC50 HepG2 / IC50 W2
Procedure: (§1) The in vitro antiplasmodial activities were tested over concentrations ranging from 39 nM to 40 μM against culture-adapted Plasmodium falciparum reference strains 3D7 and W2. […] The parasites were cultivated in RPMI medium (Sigma-Aldrich, Lyon, France) supplemented with 0.5% Albumax I (Life Technologies corporation, Paisley, United Kingdom), hypoxanthine (Sigma-Aldrich), gentamicin (Sigma-Aldrich), and human erythrocytes and were incubated at 37 °C in a candle jar, as described previously. The P. falciparum drug susceptibility test was carried out in 96-well flat bottom sterile plates under a final volume of 250 μL. After a 48 h incubation with the drugs, quantities of DNA in treated and control cultures of parasites in human erythrocytes were compared according to the SYBR Green I (Sigma-Aldrich) fluorescence-based method[38]^,[39]. Briefly, after incubation, plates were frozen at -20 °C until use. They were then left to thaw for 2 h at room temperature and 100 μL of the homogenized culture were transferred to 96-well flat bottom sterile black plates (Nunc Inc) already containing 100 μL of the SYBR Green I lysis buffer (2xSYBR Green, 20 mM Tris base pH 7.5, 5 mM EDTA, 0.008% w/v saponin, 0.08% w/v Triton X-100). […] Plates were incubated for 1 h at room temperature and then read on a fluorescence plate reader (Tecan, Austria) using excitation and emission wavelengths of 485 and 535 nm, respectively.

[2] = test system: P. falciparum CQ-sensitive strain 3D7; test: In vitro antiplasmodial activity, SYBR Green I fluorescence-based method, 3D7 strain; format: cell-based, Plasmodium falciparum; details: for IC50: chloroquine-sensitive strain 3D7, 48 h incubation, read-out: P. falciparum strains IC50 values, 3D7; for Selectivity Index HepG2/3D7: ratio CC50 HepG2 / IC50 3D7
Procedure: as §1

[3] = test system: L. donovani (MHOM/IN/00/DEVI) promastigotes; test: In vitro antileishmanial activity on promastigotes, MTT assay; format: cell-based; details: Leishmania donovani, 72 h incubation, mean ± SD of three independent experiments
Procedure: L. donovani (MHOM/IN/00/DEVI) used in this study was provided by the CNR Leishmania (Montpellier, France). The effects of the tested compounds on the growth of L. donovani (MHOM/IN/00/DEVI)promastigotes were assessed by MTT assay[41] .Briefly, promastigotes in log-phase in Schneider′s medium supplemented with 20% fetal calf serum (FCS), 2 mM L-glutamine and antibiotics (100 U/mL penicillin and 100 μg/mL streptomycin), were incubated at an average density of 10^6 parasites/mL in sterile 96-well plates with various concentrations of compounds dissolved in DMSO (final concentration less than 0.5% v/v), in duplicate. Appropriate controls treated by DMSO and pentamidine or amphotericin B (reference drugs purchased from Sigma-Aldrich) were added to each set of experiments. After a 72 h incubation period at 27 °C, parasite metabolic activity was determined. Each plate-well was then microscope-examined for detecting possible precipitate formation. 20 μL of MTT 3–(4,5-dimethylthiazol-2-yl)-2,5-diphenyltetrazolium bromide) solution (5 mg/mL) were added to each well followed by incubation for another 4 h. The enzyme reaction was then stopped by addition of 100 μL of 50% isopropanol – 10% sodium dodecyl sulfate[42] .Plates were shaken vigorously (300 rpm) for 10 minutes and the absorbance measured in a plate reader at 570 nm in a BIO-TEK ELx808 Absorbance Microplate Reader. […] IC50 were calculated by non-linear regression analysis processed on doseresponse curves, using TableCurve 2D V5.0 software. IC50 values represent the mean value calculated from three independent experiments.

[4] = Cytotoxicity evaluation, MTT assay; format: cell-based, human; details: human, HepG2 cells (hepatocarcinoma cell line, ATCC HB-8065); HepG2, 72 h incubation, mean ± SD of three independent experiments
Procedure: These assays were performed toward the human HepG2 cell line (HepG2 CC50). […] These cells express many of the hepatocyte-specific metabolic enzymes, thus enabling the cytotoxicity of tested product metabolites to be evaluated. […] Duplicate assays were performed for each sample. Each plate-well was then microscope-examined for detecting possible precipitate formation before the medium was aspirated from the wells. 100 μL of MTT solution (0.5 mg/mL in medium without FCS) were then added to each well. […] After this time, the MTT solution was removed and DMSO (100 μL) was added to dissolve the resulting blue formazan crystals. Plates were shaken vigorously (300 rpm) for 5 minutes. The absorbance was measured at 570 nm with 630 nm as reference wavelength spectrophotometer using a BIO-TEK ELx808 Absorbance Microplate Reader. DMSO was used as blank and doxorubicin (Sigma Aldrich) as positive control. Cell viability was calculated as percentage of control (cells incubated without compound). The 50% cytotoxic concentration was determined from the dose-response curve by using the TableCurve 2D V5.0 software (Systat Software, San Jose, CA).

[5] = Plasmodium falciparum, 3D7, 48 h

c1ccc2c(c1)nc(-c1ccc(CNCCCNCCCNCc3ccc(-c4nc5ccccc5n5cccc45)cc3)cc1)c1cccn12 (as salt: ammonium) [1a, Bis{N-[4-(pyrrolo[1,2-a]quinoxalin-4-yl)benzyl]-3-aminopropyl}amine]
melting point: > 260 °C

COc1ccc2c(c1)nc(-c1ccc(CNCCCN(CCCNCc3ccc(-c4nc5cc(OC)ccc5n5cccc45)cc3)CCCNCc3ccc(-c4nc5cc(OC)ccc5n5cccc45)cc3)cc1)c1cccn12 (as salt: ammonium) [1s, Tris{N-[4–(7-methoxypyrrolo[1,2-a]quinoxalin-4-yl)benzyl]-3-aminopropyl}amine]
melting point: 192 to 194 °C

COc1ccc2nc(-c3cccc(CNCCOCCOCCOCCNCc4cccc(-c5nc6ccc(OC)cc6n6cccc56)c4)c3)c3cccn3c2c1 (as salt: ammonium) [1u, N,N′-[oxybis(2,1-ethanediyloxy-2,1-ethanediyl)]bis-3–(8-methoxypyrrolo[1,2-a]quinoxalin-4-yl)benzylamine]
melting point: 141 to 144 °C

COc1ccc2nc(-c3cccc(CNCCCN4CCN(CCCNCc5cccc(-c6nc7ccc(OC)cc7n7cccc67)c5)CC4)c3)c3cccn3c2c1 (as salt: ammonium) [1p, Bis{N-[3–(8-methoxypyrrolo[1,2-a]quinoxalin-4-yl)benzyl]-3-aminopropyl}piperazine]
melting point: 234 to 237 °C

c1ccc2c(c1)cc1c(-c3ccc(CNCCCN4CCN(CCCNCc5ccc(-c6nc7ccccc7n7c6cc6ccccc67)cc5)CC4)cc3)nc3ccccc3n12 (as salt: ammonium) [1q, Bis{N-[4-(indolo[1,2-a]quinoxalin-6-yl)benzyl]-3-aminopropyl}piperazine]
melting point: > 260 °C

CN(CCCNCc1ccc(-c2nc3ccccc3n3cccc23)cc1)CCCNCc1ccc(-c2nc3ccccc3n3cccc23)cc1 (as salt: ammonium) [1b, Bis{N-[4-(pyrrolo[1,2-a]quinoxalin-4-yl)benzyl]-3-aminopropyl}methylamine]
melting point: 245 to 248 °C

CCOc1ccn2c1c(-c1ccc(CNCCCN(C)CCCNCc3ccc(-c4nc5ccccc5n5ccc(OCC)c45)cc3)cc1)nc1ccccc12 (as salt: ammonium) [1j, Bis{N-[4–(3-ethoxypyrrolo[1,2-a]quinoxalin-4-yl)benzyl]-3-aminopropyl}methylamine]
melting point: 192 to 195 °C

COc1ccc2nc(-c3cccc(CNCCCN(CCCNCc4cccc(-c5nc6ccc(OC)cc6n6cccc56)c4)CCCNCc4cccc(-c5nc6ccc(OC)cc6n6cccc56)c4)c3)c3cccn3c2c1 (as salt: ammonium) [1t, Tris{N-[3–(8-methoxypyrrolo[1,2-a]quinoxalin-4-yl)benzyl]-3-aminopropyl}amine]
melting point: 184 to 187 °C

COc1cccc2nc(-c3ccc(CNCCCN(C)CCCNCc4ccc(-c5nc6cccc(OC)c6n6cccc56)cc4)cc3)c3cccn3c12 (as salt: ammonium) [1h, Bis{N-[4–(9-methoxypyrrolo[1,2-a]quinoxalin-4-yl)benzyl]-3-aminopropyl}methylamine]
melting point: 160 to 162 °C

CCOc1ccn2c1c(-c1ccc(CNCCCN3CCN(CCCNCc4ccc(-c5nc6ccccc6n6ccc(OCC)c56)cc4)CC3)cc1)nc1ccccc12 (as salt: ammonium) [1k, Bis{N-[4–(3-ethoxypyrrolo[1,2-a]quinoxalin-4-yl)benzyl]-3-aminopropyl}piperazine]
melting point: 218 to 220 °C

COc1ccc2nc(-c3ccc(CNCCCN4CCN(CCCNCc5ccc(-c6nc7ccc(OC)cc7n7cccc67)cc5)CC4)cc3)c3cccn3c2c1 (as salt: ammonium) [1g, Bis{N-[4–(8-methoxypyrrolo[1,2-a]quinoxalin-4-yl)benzyl]-3-aminopropyl}piperazine]
melting point: 236 to 239 °C

COc1ccc2nc(-c3cccc(CNCCCN(C)CCCNCc4cccc(-c5nc6ccc(OC)cc6n6cccc56)c4)c3)c3cccn3c2c1 (as salt: ammonium) [1o, Bis{N-[3–(8-methoxypyrrolo[1,2-a]quinoxalin-4-yl)benzyl]-3-aminopropyl}methylamine]
melting point: 188 to 191 °C

COc1ccc2nc(-c3ccc(CNCCCN(C)CCCNCc4ccc(-c5nc6ccc(OC)cc6n6cccc56)cc4)cc3)c3cccn3c2c1 (as salt: ammonium) [1f, Bis{N-[4–(8-methoxypyrrolo[1,2-a]quinoxalin-4-yl)benzyl]-3-aminopropyl}methylamine]
melting point: 240 to 242 °C

COc1ccc2nc(-c3cccc(CNCCOCCOCCOCCNCc4cccc(-c5nc6ccc(OC)cc6n6cccc56)c4)c3)c3cccn3c2c1 [1u, N,N′-[oxybis(2,1-ethanediyloxy-2,1-ethanediyl)]bis-3–(8-methoxypyrrolo[1,2-a]quinoxalin-4-yl)benzylamine]
IC50 [1]: 250 ± 80 nM | Selectivity Index HepG2/W2 [1]: 6.16 | IC50 [2, 5]: ~80 nM | IC50 [2]: 76 ± 9 nM | Selectivity Index HepG2/3D7 [2]: 20.26 | IC50 [3]: ≥ 10000 nM | CC50 at 72 h [4]: 1540 ± 700 nM

COc1ccc2nc(-c3cccc(CNCCCN(CCCNCc4cccc(-c5nc6ccc(OC)cc6n6cccc56)c4)CCCNCc4cccc(-c5nc6ccc(OC)cc6n6cccc56)c4)c3)c3cccn3c2c1 [1t, Tris{N-[3–(8-methoxypyrrolo[1,2-a]quinoxalin-4-yl)benzyl]-3-aminopropyl}amine]
IC50 [1]: 190 ± 20 nM | Selectivity Index HepG2/W2 [1]: 9.05 | IC50 [2, 5]: 240 ± 30 nM | Selectivity Index HepG2/3D7 [2]: 7.17 | IC50 [3]: ≥ 10000 nM | CC50 at 72 h [4]: 1720 ± 600 nM

COc1ccc2nc(-c3ccc(CNCCCN4CCN(CCCNCc5ccc(-c6nc7ccc(OC)cc7n7cccc67)cc5)CC4)cc3)c3cccn3c2c1 [1g, Bis{N-[4–(8-methoxypyrrolo[1,2-a]quinoxalin-4-yl)benzyl]-3-aminopropyl}piperazine]
IC50 [1]: 360 ± 40 nM | Selectivity Index HepG2/W2 [1]: 5.94 | IC50 [2, 5]: 2220 ± 250 nM | Selectivity Index HepG2/3D7 [2]: 0.96 | IC50 [3]: 1070 ± 100 nM | CC50 at 72 h [4]: 2140 ± 1400 nM

c1ccc2c(c1)nc(-c1ccc(CNCCCN3CCN(CCCNCc4ccc(-c5nc6ccccc6n6cccc56)cc4)CC3)cc1)c1cccn12 (as salt: ammonium) [1c, Bis{N-[4-(pyrrolo[1,2-a]quinoxalin-4-yl)benzyl]-3-aminopropyl}piperazine]
melting point: > 260 °C

CN(CCCNCc1cccc(-c2nc3ccccc3n3cccc23)c1)CCCNCc1cccc(-c2nc3ccccc3n3cccc23)c1 (as salt: ammonium) [1m, Bis{N-[3-(pyrrolo[1,2-a]quinoxalin-4-yl)benzyl]-3-aminopropyl}methylamine]
melting point: 209 to 211 °C
